Source: PMC2642990, “The Glycogen-Binding Domain on the AMPK β Subunit Allows the Kinase to Act as a Glycogen Sensor” (Cell Metabolism, 2009)

Molecular target: T1, recombinant α1β1γ1 complex with β1 GBD mutations (W100G/W133A and others) (Rattus norvegicus, UniProt P80386, W100G/W133A)
T1 construct: we made mutations in full-length β1 coexpressed with α1 and γ1 in CCL13 cells; made in house; host or cells: human CCL13 cells, co-transfected; isolated by anti-myc immunoprecipitation
Test: recombinant AMPK with GBD point mutations in β1, assayed in immunoprecipitates
Type: biochemical
Conditions: 20 mM; Figure 5D
From the text: To test whether mutations that interfered with the binding of glycogen to the GBD also affected inhibition of AMPK by glycogen, we made mutations in full-length β1 coexpressed with α1 and γ1 in CCL13 cells, isolated the complex by immunoprecipitation via the myc tag on α1, and assayed the kinase activity in the presence and absence of glycogen. The activities were adjusted to correct for slight variation in recovery of the α1 subunit assessed by blotting (inset in Figure 3A). […] Because all of these assays were conducted in resuspended immunoprecipitates, the degree of inhibition of the wild-type was < 50%, as discussed in the previous section. […]
Figure 3 Effect of β Subunit Mutations on Inhibition of Recombinant AMPK Complexes by Glycogen (A) Myc-α1, γ1, and β1 with the wild-type sequence or the indicated mutations were expressed in CCL13 cells, immunoprecipitated, and assayed ± bovine liver glycogen (200 mM glucose equivalents); results are mean ± SEM (n = 3). […] (C) Myc-α1, γ1, and β1 with the wild-type sequence or with W100G/W133A mutations were expressed in CCL13 cells, immunoprecipitated using anti-myc (left) or anti-FLAG (right) antibodies, and analyzed by western blotting using anti-myc antibodies (top panels) or a mixture of anti-β1 and -γ1 antibodies (bottom panels). […]

T1 sequence (P80386 2-270 W100G/W133A): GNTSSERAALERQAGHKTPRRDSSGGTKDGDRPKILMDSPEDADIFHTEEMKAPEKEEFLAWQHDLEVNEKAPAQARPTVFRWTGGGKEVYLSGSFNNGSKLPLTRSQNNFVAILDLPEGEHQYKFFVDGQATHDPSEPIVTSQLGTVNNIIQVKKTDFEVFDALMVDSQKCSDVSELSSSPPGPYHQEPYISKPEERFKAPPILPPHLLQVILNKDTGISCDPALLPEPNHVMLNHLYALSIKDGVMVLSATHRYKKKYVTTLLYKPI
T1 sequence (P54645 whole entry partner): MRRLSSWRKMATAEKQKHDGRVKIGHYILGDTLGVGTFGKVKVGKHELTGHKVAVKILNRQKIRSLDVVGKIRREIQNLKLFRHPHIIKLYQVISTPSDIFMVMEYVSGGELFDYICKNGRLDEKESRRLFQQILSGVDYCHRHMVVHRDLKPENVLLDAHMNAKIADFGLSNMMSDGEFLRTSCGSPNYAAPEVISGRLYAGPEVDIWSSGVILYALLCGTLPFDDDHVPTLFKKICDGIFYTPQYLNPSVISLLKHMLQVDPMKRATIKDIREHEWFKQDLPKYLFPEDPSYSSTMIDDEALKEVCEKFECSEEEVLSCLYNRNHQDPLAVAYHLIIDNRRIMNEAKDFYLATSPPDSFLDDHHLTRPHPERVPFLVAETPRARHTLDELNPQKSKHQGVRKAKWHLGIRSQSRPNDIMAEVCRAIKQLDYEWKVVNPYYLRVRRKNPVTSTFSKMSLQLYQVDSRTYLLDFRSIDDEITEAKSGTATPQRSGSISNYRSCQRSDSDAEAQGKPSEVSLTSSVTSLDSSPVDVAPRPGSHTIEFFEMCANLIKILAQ
T1 sequence (P80385 whole entry partner): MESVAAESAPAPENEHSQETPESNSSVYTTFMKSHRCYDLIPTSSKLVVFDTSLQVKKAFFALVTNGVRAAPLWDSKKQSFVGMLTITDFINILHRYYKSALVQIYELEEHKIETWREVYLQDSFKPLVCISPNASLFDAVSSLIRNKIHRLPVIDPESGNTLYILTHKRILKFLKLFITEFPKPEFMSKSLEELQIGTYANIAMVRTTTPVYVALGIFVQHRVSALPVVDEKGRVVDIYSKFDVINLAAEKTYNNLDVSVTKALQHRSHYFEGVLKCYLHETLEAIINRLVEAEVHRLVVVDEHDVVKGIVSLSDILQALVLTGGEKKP

OC[C@H]1O[C@H](OC[C@H]2OC(O)[C@H](O)[C@@H](O)[C@@H]2O)[C@H](O)[C@@H](O)[C@@H]1O (stereo partly shown) [isomaltose]
inhibition of W100G/W133A mutant: not
